From the OPERA property sets (Mansouri et al. 2018) come the findings set out here.

For `COc1ccc(CCNCC(O)COc2ccc(-c3ncc(C)[nH]3)cc2OC)cc1OC` (centres undefined), the lipophilicity (logP) turned out to be 1.89. As for `CSC(C)=NOC(=O)N(C)SN(C(=O)N(C)C)C1CC1`, the figure is 2; as for `COc1ccc(Cc2cnc(N)nc2N)cc1N(C)C`, 1.68; as for `CCOc1ccc(Cc2cnc(N)nc2N)cc1OC`, 1.34.

The compound `O=Cc1cccc(Cl)c1` had a logP of 2.26. Turning to `N[C@@H](Cc1ccc(O)c(O)c1)C(=O)O`, the logP is -2.39. On to `CCCOc1cc(Cc2cnc(N)nc2N)ccc1OC`, for which the logP was determined as 1.88. `CS(=O)CCn1ccnc1[N+](=O)[O-]` (centres undefined) returned a lipophilicity (logP) of -1.22. In the case of `Clc1ccc(-c2ccccc2Cl)cc1` it was 5.09; in that of `CC(C(=O)NCCO)n1ccnc1[N+](=O)[O-]` (centres undefined), -1.16; in that of `CC(C)Oc1ccc(C(=O)c2ccc3n2CCC3C(=O)O)cc1` (centres undefined), 3.38. As for `Nc1ncc(Cc2cccc(Cl)c2)c(N)n1`, the figure is 2.29; as for `COc1ccc(C(O)(Cn2ccnc2)c2ccc(Br)cc2)cc1` (centres undefined), 4.02; as for `CCN(CC)CCC(=O)Nc1c(C)cccc1C`, 2.21.

With `CCCCCCCCC(C)(C)c1ccc(C2CCCC(O)C2)c(O)c1` (centres undefined), the log partition coefficient (logP) was found to be 8.16. In the case of `COc1c(Br)cc(Br)cc1Br` it was 4.48; in that of `Fc1cccc(N=C2NCCN2)c1Cl`, 1.52.

Turning to `Nc1ccn([C@H]2C=C[C@@H](CO)O2)c(=O)n1`, the logP is -1.55. In the case of `Cc1ccccc1OCC(O)CNCCOc1ccc(C(N)=O)cc1` (centres undefined) it was 2.22; in that of `CCCCc1cc(OC)c(CC(C)N)cc1OC` (centres undefined), 4. As for `CCN(CC)C(C)C(=O)Nc1c(C)cccc1C` (centres undefined), the figure is 2.73; as for `CCc1nc(N)nc(N)c1-c1ccc(Cl)c(Cl)c1`, 3.03; as for `Cc1ccc(O)c(CO)c1`, 0.97. As for `C#CC1(O)C(F)CC2C3CCc4cc(O)ccc4C3C(OC)CC21C` (centres undefined), the figure is 2.87. On to `O=NN1CC=CCC1`, for which the lipophilicity (logP) was 1.18.

As to `Cc1cnc2n(c1=O)CCCC2`, the lipophilicity (logP) is 0.12.

Regarding `CO[C@@]1(NC(=O)Cc2cccs2)C(=O)N2C(C(=O)O)=C(COC(N)=O)CS[C@@H]21`, the lipophilicity (logP) is -0.02. In the case of `O=C(c1ccc(Cl)cc1Cl)c1ccc2n1CCC2C(=O)O` (centres undefined) it was 3.56; in that of `CC(C(=O)NCC(O)CO)n1ccnc1[N+](=O)[O-]` (centres undefined), -1.64.

As to `CCN(CC)CCCN(C(=O)Cc1ccccc1)c1c(C)cccc1C`, the lipophilicity (logP) was 4.94. As for `Oc1ccc(C2(O)CCN(CCCSc3ccc(F)cc3)CC2)cc1`, the logP turned out to be 4.17. As for `O=C1NC(=O)C(c2ccccc2)C(=O)N1`, the figure is -0.17. For the compound `Fc1ccc(F)c(F)c1`, the logP came out at 2.52.

`CCOC(=O)c1cccc(O)c1` showed a logP of 2.47. As for `CCOC(=O)CNC(=O)CCCCSc1ncnc2nc[nH]c12`, the figure is 0.91. As for `c1ccc(-c2ncc3ccccc3n2)cc1`, the figure is 3.42; as for `CCCCCC=CCC=CCCCCCCCC(=O)O`, 7.05. As for `Clc1cccc(-c2cccc(Cl)c2)c1`, the figure is 5.27. Compound `c1ccc(C2CCNCC2)cc1` yielded a logP of 2.39.

The compound `c1ccc(-c2nc3ccccc3o2)cc1` gave a logP of 3.67.

`O=C1NC(=O)c2cc(-c3ccccc3)ccc21` showed a logP of 2.97. As for `Cc1cc(=O)n2c(n1)CCCC2C` (centres undefined), the figure is 0.67. As for `CCCCCCC(C)(C)c1ccc(C2CC(O)CCC2C)c(O)c1` (centres undefined), the figure is 7.49. In the case of `O=C(O)C1CCc2cc(Cl)ccc2O1` (centres undefined) it was 2.4; in that of `Cc1cn([C@H]2C=C[C@@H](CO)O2)c(=O)[nH]c1=O`, -0.72. As to `C=C1C(=O)OC2C1C(OC(=O)C=C(C)C)CC1=CC(CC3(C)OC23)OC1=O` (centres undefined), the logP was found to be 1.05. In the case of `CCc1cc(CC)cc(C2C(=O)c3ccccc3C2=O)c1` it was 4.94.

Turning to `C=C(C)C(=O)OCC(O)COc1ccccc1` (centres undefined), the logP worked out at 2.27. On to `Oc1ccc(O)c2ccccc12`, for which the logP turned out to be 1.9.
